From ChEMBL document CHEMBL4028802, “DILIrank: the largest reference drug list ranked by the risk for developing drug-induced liver injury in humans” (Drug Discov Today, 2016)

Assays:
[1] = species on record: Homo sapiens; experiment: Liver toxicity in human assessed as induction of drug-induced liver injury by measuring severity class index
[2] = species on record: Homo sapiens; experiment: Liver toxicity in human assessed as induction of drug-induced liver injury by measuring verified drug-induced liver injury concern status
For DILI severity class in this document: key of the grades not given here.

Row | Compound | DILI_severity_class [1] | DILI_Concern [2]
1 | Cc1nc([N+](=O)[O-])cn1-c1ccc([N+](=O)[O-])cc1 [NITREFAZOLE] | 8 | Most-Dili-Concern
2 | COC(=O)[C@H](c1ccccc1Cl)N1CCc2sccc2C1 [CLOPIDOGREL] | 7 | Less-Dili-Concern
3 | Cc1onc(-c2c(Cl)cccc2Cl)c1C(=O)N[C@@H]1C(=O)N2[C@@H]1SC(C)(C)[C@@H]2C(=O)O [DICLOXACILLIN] | 3 | Less-Dili-Concern
4 | O=C(Oc1ccccc1C(=O)O)c1ccccc1O [SALSALATE] | 3 | Less-Dili-Concern
5 | Cc1cnc(NC(=O)C2=C(O)c3ccccc3S(=O)(=O)N2C)s1 [MELOXICAM] | 3 | Less-Dili-Concern
6 | CC(=O)O[C@H]1C(=O)[C@@]2(C)[C@H]([C@H](OC(=O)c3ccccc3)[C@]3(O)C[C@H](OC(=O)[C@H](O)[C@@H](NC(=O)c4ccccc4)c4ccccc4)C(C)=C1C3(C)C)[C@]1(OC(C)=O)CO[C@@H]1C[C@@H]2O [PACLITAXEL] | 4 | Less-Dili-Concern
7 | C[C@](N)(Cc1ccc(O)c(O)c1)C(=O)O [METHYLDOPA] | 8 | Most-Dili-Concern
8 | Nc1nc2[nH]cc(CCc3ccc(C(=O)N[C@@H](CCC(=O)O)C(=O)O)cc3)c2c(=O)[nH]1 [PEMETREXED] | 3 | Ambiguous-Dili-Concern
9 | CC(=O)O[C@H]1C[C@@H]2CC[C@@H]3[C@H](CC[C@@]4(C)[C@H]3C[C@H]([N+]3(C)CCCCC3)[C@@H]4OC(C)=O)[C@@]2(C)C[C@@H]1[N+]1(C)CCCCC1 [PANCURONIUM] | 0 | No-Dili-Concern
10 | O=C(c1ccccc1)c1ccc2n1CCC2C(=O)O (stereo not given) [KETOROLAC] | 3 | Less-Dili-Concern
11 | O=[N+]([O-])OCC(CO[N+](=O)[O-])O[N+](=O)[O-] [NITROGLYCERIN] | 0 | No-Dili-Concern
12 | CC(C)NCC(O)COc1ccc(COCCOC(C)C)cc1 (stereo not given) [BISOPROLOL] | 3 | Ambiguous-Dili-Concern
13 | CC[C@@H](CO)NCCN[C@@H](CC)CO [ETHAMBUTOL] | 8 | Most-Dili-Concern
14 | C[C@@H](CN1CC(=O)NC(=O)C1)N1CC(=O)NC(=O)C1 [DEXRAZOXANE] | 4 | Ambiguous-Dili-Concern
15 | CCc1cc(C(N)=S)ccn1 [ETHIONAMIDE] | 3 | Less-Dili-Concern
16 | CCCCCc1cc(O)c2c(c1)OC(C)(C)[C@@H]1CCC(C)=C[C@@H]21 [DRONABINOL] | 3 | Ambiguous-Dili-Concern
17 | Nc1nc(=O)[nH]cc1F [FLUCYTOSINE] | 3 | Ambiguous-Dili-Concern
18 | C=CCC1(C(C)CCC)C(=O)NC(=O)NC1=O (stereo not given) [SECOBARBITAL] | 3 | Ambiguous-Dili-Concern
19 | CNCCC(Oc1ccc(C(F)(F)F)cc1)c1ccccc1 (stereo not given) [FLUOXETINE] | 3 | Less-Dili-Concern
20 | CCC(C)CCCCC(=O)N[C@@H](CCNCS(=O)(=O)O)C(=O)N[C@H](C(=O)N[C@@H](CCNCS(=O)(=O)O)C(=O)N[C@H]1CCNC(=O)[C@H]([C@@H](C)O)NC(=O)[C@H](CCNCS(=O)(=O)O)NC(=O)[C@H](CCNCS(=O)(=O)O)NC(=O)[C@H](CC(C)C)NC(=O)[C@@H](CC(C)C)NC(=O)[C@H](CCNCS(=O)(=O)O)NC1=O)[C@@H](C)O (stereo not given in full) | 0 | No-Dili-Concern

Row | Compound | DILI_severity_class [1] | DILI_Concern [2]
21 | C[C@@H](O[C@H]1OCCN(Cc2n[nH]c(=O)[nH]2)[C@H]1c1ccc(F)cc1)c1cc(C(F)(F)F)cc(C(F)(F)F)c1 [APREPITANT] | 3 | Ambiguous-Dili-Concern
22 | CC(C)(C)NC(=O)[C@@H]1C[C@@H]2CCCC[C@@H]2CN1C[C@@H](O)[C@H](Cc1ccccc1)NC(=O)[C@H](CC(N)=O)NC(=O)c1ccc2ccccc2n1 | 3 | Less-Dili-Concern
23 | O=C1CN(/N=C/c2ccc(-c3ccc([N+](=O)[O-])cc3)o2)C(O)=N1 [DANTROLENE] | 8 | Most-Dili-Concern
24 | CCOC(=O)CN[C@@H](C(=O)N1CC[C@H]1C(=O)NCc1ccc(/C(N)=N\O)cc1)C1CCCCC1 [XIMELAGATRAN] | 8 | Most-Dili-Concern
25 | POLYMYXIN B SULFATE | 0 | No-Dili-Concern
26 | O=C([O-])O.[Na+] [SODIUM BICARBONATE] | 0 | No-Dili-Concern
27 | CN(CCOc1ccc(CC2SC(=O)NC2=O)cc1)c1ccccn1 (stereo not given) [ROSIGLITAZONE] | 3 | Less-Dili-Concern
28 | Cc1nc2n(c(=O)c1CCN1CCC(c3noc4cc(F)ccc34)CC1)CCCC2O (stereo not given) [PALIPERIDONE] | 0 | No-Dili-Concern
29 | CC(=O)NC[C@H]1CN(c2ccc(N3CCOCC3)c(F)c2)C(=O)O1 [LINEZOLID] | 3 | Less-Dili-Concern
30 | CCN(CC)CCOC(=O)C1(C2CCCCC2)CCCCC1 [DICYCLOMINE] | 0 | No-Dili-Concern
31 | NS(=O)(=O)c1cc2c(cc1Cl)NCNS2(=O)=O [HYDROCHLOROTHIAZIDE] | 2 | Less-Dili-Concern
32 | NC(=O)C[S@@+]([O-])C(c1ccccc1)c1ccccc1 [ARMODAFINIL] | 3 | Ambiguous-Dili-Concern
33 | NC(=O)C1CCN(CCCN2c3ccccc3Sc3ccc(Cl)cc32)CC1 [PIPAMAZINE] | 8 | Most-Dili-Concern
34 | CC(C)(C#N)c1cc(Cn2cncn2)cc(C(C)(C)C#N)c1 [ANASTROZOLE] | 3 | Less-Dili-Concern
35 | Cc1cccc(Nc2ccncc2S(=O)(=O)NC(=O)NC(C)C)c1 [TORSEMIDE] | 2 | Ambiguous-Dili-Concern
36 | Cc1ccccc1N1C(=O)c2cc(S(N)(=O)=O)c(Cl)cc2NC1C (stereo not given) [METOLAZONE] | 3 | Ambiguous-Dili-Concern
37 | CCCCCN(C)CCC(O)(P(=O)(O)O)P(=O)(O)O [IBANDRONIC ACID] | 0 | No-Dili-Concern
38 | Cc1cc(C(=O)NNCc2ccccc2)no1 [ISOCARBOXAZID] | 5 | Ambiguous-Dili-Concern
39 | CC(C)NCC(O)COc1cccc2ccccc12 (stereo not given) [PROPRANOLOL] | 3 | Ambiguous-Dili-Concern
40 | C[C@H]1CN(C[C@H](Cc2ccccc2)C(=O)NCC(=O)O)CC[C@@]1(C)c1cccc(O)c1 [ALVIMOPAN] | 0 | No-Dili-Concern

Row | Compound | DILI_severity_class [1] | DILI_Concern [2]
41 | H-SEEPPISLDLTFHLLREVLEMARAEQLAQQAHSNRKMLEII-OH | 0 | No-Dili-Concern
42 | Nc1c(CC(=O)O)cccc1C(=O)c1ccc(Br)cc1 [BROMFENAC] | 8 | Most-Dili-Concern
43 | CO[C@@]1(NC(=O)Cc2cccs2)C(=O)N2C(C(=O)O)=C(COC(N)=O)CS[C@@H]21 [CEFOXITIN] | 3 | Ambiguous-Dili-Concern
44 | CCN1CC(CCN2CCOCC2)C(c2ccccc2)(c2ccccc2)C1=O (stereo not given) [DOXAPRAM] | 0 | No-Dili-Concern
45 | CN1C2CCCC1CC(NC(=O)c1nn(C)c3ccccc13)C2 (stereo not given) [GRANISETRON] | 3 | Ambiguous-Dili-Concern
46 | COC(=O)[C@H](c1ccccc1)[C@H]1CCCCN1 [DEXMETHYLPHENIDATE] | 7 | Less-Dili-Concern
47 | CN1C(C(=O)Nc2ccccn2)=C(O)c2ccccc2S1(=O)=O [PIROXICAM] | 3 | Less-Dili-Concern
48 | CC(N)Cc1ccccc1 (stereo not given) [AMPHETAMINE] | 0 | Less-Dili-Concern
49 | Cc1cccc(C)c1OCC(C)N (stereo not given) [MEXILETINE] | 3 | Most-Dili-Concern
50 | CC[C@H]1OC(=O)[C@H](C)[C@@H](O[C@H]2C[C@@](C)(OC)[C@@H](O)[C@H](C)O2)[C@H](C)[C@@H](O[C@@H]2O[C@H](C)C[C@H](N(C)C)[C@H]2O)[C@](C)(OC)C[C@@H](C)C(=O)[C@H](C)[C@@H](O)[C@]1(C)O [CLARITHROMYCIN] | 8 | Most-Dili-Concern
51 | O=C(c1ccc(OCCN2CCCCC2)cc1)c1c(-c2ccc(O)cc2)sc2cc(O)ccc12 [RALOXIFENE] | 0 | No-Dili-Concern
52 | OCCOCCN1CCN(C(c2ccccc2)c2ccc(Cl)cc2)CC1 (stereo not given) [HYDROXYZINE] | 0 | No-Dili-Concern
53 | CC(=O)Oc1ccccc1C(=O)Nc1ncc([N+](=O)[O-])s1 [NITAZOXANIDE] | 0 | No-Dili-Concern
54 | COC(=O)C(c1ccccc1)C1CCCCN1 (stereo not given) [METHYLPHENIDATE] | 3 | Less-Dili-Concern
55 | Nc1nc2ccc(OC(F)(F)F)cc2s1 [RILUZOLE] | 8 | Most-Dili-Concern
56 | CC(=O)CC(c1ccccc1)c1c(O)c2ccccc2oc1=O (stereo not given) [WARFARIN] | 5 | Less-Dili-Concern
57 | CCN1CCN(C(=O)N[C@@H](C(=O)N[C@@H]2C(=O)N3[C@@H]2SC(C)(C)[C@@H]3C(=O)O)c2ccccc2)C(=O)C1=O [PIPERACILLIN] | 3 | Ambiguous-Dili-Concern
58 | O=C1CN(/N=C/c2ccc([N+](=O)[O-])o2)C(=O)N1 [NITROFURANTOIN] | 8 | Most-Dili-Concern
59 | CC(=O)CCCCn1c(=O)c2c(ncn2C)n(C)c1=O [PENTOXIFYLLINE] | 5 | Ambiguous-Dili-Concern
60 | O=C1Nc2ccccc2C1(c1ccc(O)cc1)c1ccc(O)cc1 [OXYPHENISATINE] | 8 | Most-Dili-Concern
